# Results reported in patent EP0976707A1, “CYCLOALKYL BENZYL ETHER COMPOUNDS” (Nissan Chemical Industries, Ltd., priority 1997, dated 1998).
# Like-named read-outs stand apart in the source and are kept apart here.
# What was measured:
# Format in all cases: in vivo
# rice plant = assay: Phytotoxicity test under shallow planting conditions for rice plant (Test Example 4); conditions: aerial part, three weeks after the treatment
# Excerpt: [Test Example 4] Phytotoxicity test under shallow planting conditions for rice plant In a 1/5,000-are Wagner pot was filled alluvial soil, which was mixed with water introduced therein to establish submerged conditions at a water depth of 4 cm. Rice seedlings at 2.5 leaf stage were transplanted at a depth of 0.5 cm and the roots were exposed to the air. On the day when the transplantation was made, the compound of the present invention prepared according to one of Composition Examples was applied. Three weeks after the treatment, the live weight of the aerial part of the plant was measured and inhibition ratio (%) was obtained according to the following equation. Inhibition ratio (%) = (1 -(live weight of aerial part of treated plant)/(live weight of aerial part of non-treated plant)) x 100 [formula]
# Monochoria vaginalis [1] = assay: Herbicidal effect test under submerged conditions (Test Example 5); design: key: 0 indicating no influence; 5 indicating complete withering; conditions: three weeks after the treatment, rating 0-5
# Excerpt: (§1) [Test Example 5] Herbicidal effect test under submerged conditions
# (§2) In a 1/10,000-are Wagner pot was filled alluvial soil, which was mixed with water introduced therein to establish submerged conditions at a water depth of 4 cm. Respective seeds of Monochoria vaginalis, Rotala indica and Scirpus juncoides were sowed mixedly in the pot and then treated with the compound of the present invention prepared according to one of Composition Examples. Three weeks after the treatment, the herbicidal effect on the various weeds was examined.
# Rotala indica [2] = assay: as above; design: key: 0 indicating no influence; 5 indicating complete withering; conditions: three weeks after the treatment, rating 0-5
# Excerpt: as §1, §2
# Scirpus juncoides [3] = assay: as above; design: key: 0 indicating no influence; 5 indicating complete withering; conditions: three weeks after the treatment, rating 0-5
# Excerpt: as §1, §2
# Monochoria vaginalis [4] = assay: Herbicidal effect test under submerged conditions, inhibition ratio (Test Example 6); conditions: Pontederia vaginalis, 504 h, read-out: inhibition ratio (%), C (Monochoria vaginalis)
# Excerpt: (§3) [Test Example 6] Herbicidal effect test under submerged conditions
# (§4) In a 1/5,000-are Wagner pot was filled alluvial soil, which was mixed with water introduced therein to establish submerged conditions at a water depth of 4 cm. After seeds of Monochoria vaginalis and Scirpus juncoides were sowed mixedly in the pot, 2.5 leaf stage rice seedlings were transplanted at a depth of 2 cm. On the next day of transplantation of the rice, the compound of the present invention prepared according to one of Composition Examples was applied. Three weeks after the treatment, the live weights of aerial parts of each kind of the weeds and rice were measured and inhibition ratios (%) were obtained according to Test Example 4. In the tables, (E) indicates expected values obtained by the equation of Colby and (F) indicates found values. Left side values and right side values in the column of application rate for each active ingredient indicate corresponding dosages of compounds in the column of compound name.
# (§5) Synergistic herbicidal effect of herbicide mixtures will be explained as follows. That is, individual active compounds in many cases may be deficient in their herbicidal activity. In such a case, if the herbicidal activity of two active compounds in combination is higher than the simple sum of the activities of the compounds (expected activity), then this is called synergistic action. The expected activity from the stable combination of two herbicides, can be calculated as follows. (cf. Colby, S. R., Calculation of Synergistic and Antagonistic Reactions of Combination of Herbicides, Weed, vol. 15, pages 20-22 (1967)) E = α + β - ( α · β / 100) [formula] α : Inhibition ratio when herbicide A is applied in a rate of a kg/ha β : Inhibition ratio when herbicide B is applied in a rate of b kg/ha E : Inhibition ratio expected when herbicide A is applied in a rate of a kg/ha and herbicide B is applied in a rate of b kg/ha.
# Scirpus juncoides [5] = assay: as above; conditions: Schoenoplectiella juncoides, 504 h, read-out: inhibition ratio (%), B (Scirpus juncoides)
# Excerpt: as §3, §4, §5
# transplanted rice [6] = assay: as above; conditions: live weight of aerial part, three weeks after the treatment
# Excerpt: Herbicidal effect test under submerged conditions
# In a 1/5,000-are Wagner pot was filled alluvial soil, which was mixed with water introduced therein to establish submerged conditions at a water depth of 4 cm. After seeds of Monochoria vaginalis and Scirpus juncoides were sowed mixedly in the pot, 2.5 leaf stage rice seedlings were transplanted at a depth of 2 cm. On the next day of transplantation of the rice, the compound of the present invention prepared according to one of Composition Examples was applied. […] In the tables, (E) indicates expected values obtained by the equation of Colby and (F) indicates found values.
# The expected activity from the stable combination of two herbicides, can be calculated as follows.
# [7] = tested on: Echinochloa crus-galli var. crus-galli; assay: Comparative test, pre-emergence treatment under submerged conditions (as Test Example 1); design: key: 0 indicating no influence; 5 indicating complete withering; conditions: three weeks after the treatment, rating 0-5
# Excerpt: (§6) [Test Example 1] Herbicidal effect test by pre-emergence treatment to weeds under submerged conditions
# (§7) In a 1/10,000-are Wagner pot was filled alluvial soil, which was mixed with water introduced therein to establish submerged conditions at a water depth of 4 cm. Respective seeds of Echinochloa crus-galli var. crus-galli, Monochoria vaginalis, Rotala indica and Scirpus juncoides were sowed mixedly in the pot and then 2.5 leaf stage rice seedlings were transplanted. The pot was placed in a greenhouse at 25 to 30°C to grow the plant. One day after the sowing, the compound of the present invention prepared according to one of Composition Examples was applied onto the water surface at a predetermined application rate. Three weeks after the treatment, the herbicidal effect on the rice plant and each kind of the weeds was examined. There was used five rating evaluation, with 0 indicating no influence and 5 indicating complete withering.
# (§8) [drawing 170] (diastreomer-(1) and (2)) involved in the claims of WO 97/02258 and the compound No. A-5 of the present invention were carried out in manners similar to that in test example 1 and 2.
# Monochoria vaginalis [8] = assay: as above; design: key: 0 indicating no influence; 5 indicating complete withering; conditions: three weeks after the treatment, rating 0-5
# Excerpt: as §6, §7, §8
# Rotala indica [9] = assay: as above; design: key: 0 indicating no influence; 5 indicating complete withering; conditions: three weeks after the treatment, rating 0-5
# Excerpt: as §6, §7, §8
# Scirpus juncoides [10] = assay: as above; design: key: 0 indicating no influence; 5 indicating complete withering; conditions: three weeks after the treatment, rating 0-5
# Excerpt: as §6, §7, §8
# transplanted rice [11] = assay: as above; design: key: 0 indicating no influence; 5 indicating complete withering; conditions: pre-emergence treatment to weeds, three weeks after the treatment, rating 0-5
# Excerpt: as §6, §7, §8
# [12] = tested on: Echinochloa crus-galli var. crus-galli; assay: Comparative test, post-emergence treatment under submerged conditions (as Test Example 2); design: key: 0 indicating no influence; 5 indicating complete withering; conditions: three weeks after the treatment, rating 0-5
# Excerpt: (§9) [Test Example 2] Herbicidal effect test by post-emergence treatment to weeds under submerged conditions
# as §7, with “When Echinochloa crus-galli var. crus-galli, Monochoria vaginalis, Rotala indica and Scirpus juncoides reached 1 to 2 leaf stage and” for “One day after”, “rice plant reached 4 leaf stage,” for “sowing,”, “on” for “on the rice plant and”, “examined in accordance” for “examined. There was used five rating evaluation,”, “the criteria of judgment in Test Example 1.” for “0 indicating no influence and 5 indicating complete withering.”
# as §8
# Monochoria vaginalis [13] = assay: as above; design: key: 0 indicating no influence; 5 indicating complete withering; conditions: three weeks after the treatment, rating 0-5
# Excerpt: as §9
# as §7, with “When Echinochloa crus-galli var. crus-galli, Monochoria vaginalis, Rotala indica and Scirpus juncoides reached 1 to 2 leaf stage and” for “One day after”, “rice plant reached 4 leaf stage,” for “sowing,”, “on” for “on the rice plant and”, “examined in accordance” for “examined. There was used five rating evaluation,”, “the criteria of judgment in Test Example 1.” for “0 indicating no influence and 5 indicating complete withering.”
# as §8
# Scirpus juncoides [14] = assay: as above; design: key: 0 indicating no influence; 5 indicating complete withering; conditions: three weeks after the treatment, rating 0-5
# Excerpt: as §9
# as §7, with “When Echinochloa crus-galli var. crus-galli, Monochoria vaginalis, Rotala indica and Scirpus juncoides reached 1 to 2 leaf stage and” for “One day after”, “rice plant reached 4 leaf stage,” for “sowing,”, “on” for “on the rice plant and”, “examined in accordance” for “examined. There was used five rating evaluation,”, “the criteria of judgment in Test Example 1.” for “0 indicating no influence and 5 indicating complete withering.”
# as §8
# Rotala indica [15] = assay: as above; conditions: three weeks after the treatment, rating 0-5
# Excerpt: as §9
# as §7, with “When Echinochloa crus-galli var. crus-galli, Monochoria vaginalis, Rotala indica and Scirpus juncoides reached 1 to 2 leaf stage and” for “One day after”, “rice plant reached 4 leaf stage,” for “sowing,”, “on” for “on the rice plant and”, “examined in accordance” for “examined. There was used five rating evaluation,”, “the criteria of judgment in Test Example 1.” for “0 indicating no influence and 5 indicating complete withering.”
# as §8
# [16] = dosage 25 g/ha, live weight of aerial part, three weeks after the treatment
# [17] = dosage 2 g/ha, live weight of aerial part, three weeks after the treatment
# [18] = dosage 4 g/ha, live weight of aerial part, three weeks after the treatment
smiles,measurement,setting,value
"C=C(C)[C@@H]1C[C@@H]2O[C@]2(C)[C@H](OCc2ccccc2F)C1 [A-5, (1S, 2R, 4S, 6S)-2-(2-fluorobenzyloxy)-4-isopropenyl-1-methyl-7-oxabicyclo[4.1.0]heptane]",the ratio of live weight to the non-treated area (%),rice plant; dosage 125 g/ha,86%
same,the ratio of live weight to the non-treated area (%),rice plant; dosage 250 g/ha,67%
same,"herbicidal effect, C (Monochoria vaginalis)",Monochoria vaginalis [1]; dosage 125 g/ha,3
same,"herbicidal effect, C (Monochoria vaginalis)",Monochoria vaginalis [1]; dosage 250 g/ha,5
same,"herbicidal effect, C (Monochoria vaginalis)",Monochoria vaginalis [1]; dosage 500 g/ha,5
same,"herbicidal effect, D (Rotala indica)",Rotala indica [2]; dosage 125 g/ha,2
same,"herbicidal effect, D (Rotala indica)",Rotala indica [2]; dosage 250 g/ha,4
same,"herbicidal effect, D (Rotala indica)",Rotala indica [2]; dosage 500 g/ha,5
same,"herbicidal effect, B (Scirpus juncoides)",Scirpus juncoides [3]; dosage 125 g/ha,4
same,"herbicidal effect, B (Scirpus juncoides)",Scirpus juncoides [3]; dosage 250 g/ha,5
same,"herbicidal effect, B (Scirpus juncoides)",Scirpus juncoides [3]; dosage 500 g/ha,5
same,pest or weed control at 25 g/ha,Monochoria vaginalis [4]; [16],59%
same,pest or weed control at 25 g/ha,Scirpus juncoides [5]; [16],52%
same,"inhibition ratio (%), a (transplanted rice)",transplanted rice [6]; dosage 25 g/ha,0%
same,"herbicidal effect, A (Echinochloa crus-galli var. crus-galli)",[7]; dosage 12.5 g/ha,5
same,"herbicidal effect, A (Echinochloa crus-galli var. crus-galli)",[7]; dosage 50 g/ha,5
same,"herbicidal effect, A (Echinochloa crus-galli var. crus-galli)",[7]; dosage 200 g/ha,5
same,"herbicidal effect, C (Monochoria vaginalis)",Monochoria vaginalis [8]; dosage 12.5 g/ha,2
same,"herbicidal effect, C (Monochoria vaginalis)",Monochoria vaginalis [8]; dosage 50 g/ha,5
same,"herbicidal effect, C (Monochoria vaginalis)",Monochoria vaginalis [8]; dosage 200 g/ha,5
same,"herbicidal effect, D (Rotala indica)",Rotala indica [9]; dosage 12.5 g/ha,2
same,"herbicidal effect, D (Rotala indica)",Rotala indica [9]; dosage 50 g/ha,5
same,"herbicidal effect, D (Rotala indica)",Rotala indica [9]; dosage 200 g/ha,5
same,"herbicidal effect, B (Scirpus juncoides)",Scirpus juncoides [10]; dosage 12.5 g/ha,2
same,"herbicidal effect, B (Scirpus juncoides)",Scirpus juncoides [10]; dosage 50 g/ha,3
same,"herbicidal effect, B (Scirpus juncoides)",Scirpus juncoides [10]; dosage 200 g/ha,5
same,"herbicidal effect, a (transplanted rice)",transplanted rice [11]; dosage 12.5 g/ha,0
same,"herbicidal effect, a (transplanted rice)",transplanted rice [11]; dosage 50 g/ha,0
same,"herbicidal effect, a (transplanted rice)",transplanted rice [11]; dosage 200 g/ha,0
same,"herbicidal effect, A (Echinochloa crus-galli var. crus-galli)",[12]; dosage 12.5 g/ha,1
same,"herbicidal effect, A (Echinochloa crus-galli var. crus-galli)",[12]; dosage 50 g/ha,5
same,"herbicidal effect, A (Echinochloa crus-galli var. crus-galli)",[12]; dosage 200 g/ha,5
same,"herbicidal effect, C (Monochoria vaginalis)",Monochoria vaginalis [13]; dosage 12.5 g/ha,1
same,"herbicidal effect, C (Monochoria vaginalis)",Monochoria vaginalis [13]; dosage 50 g/ha,4
same,"herbicidal effect, C (Monochoria vaginalis)",Monochoria vaginalis [13]; dosage 200 g/ha,5
same,"herbicidal effect, B (Scirpus juncoides)",Scirpus juncoides [14]; dosage 12.5 g/ha,1
same,"herbicidal effect, B (Scirpus juncoides)",Scirpus juncoides [14]; dosage 50 g/ha,3
same,"herbicidal effect, B (Scirpus juncoides)",Scirpus juncoides [14]; dosage 200 g/ha,5
same,"herbicidal effect, D (Rotala indica)",Rotala indica [15]; dosage 12.5 g/ha,1
same,"herbicidal effect, D (Rotala indica)",Rotala indica [15]; dosage 50 g/ha,3
same,"herbicidal effect, D (Rotala indica)",Rotala indica [15]; dosage 200 g/ha,4
"Cc1ccc(NC(=O)NC(C)(C)c2ccccc2)cc1 [R-1, daimuron, reference compound]","herbicidal effect, C (Monochoria vaginalis)",Monochoria vaginalis [1]; dosage 500 g/ha,0
same,"herbicidal effect, D (Rotala indica)",Rotala indica [2]; dosage 500 g/ha,1
same,"herbicidal effect, B (Scirpus juncoides)",Scirpus juncoides [3]; dosage 500 g/ha,5
"CCOC(=O)c1cnn(C)c1S(=O)(=O)NC(=O)Nc1nc(OC)cc(OC)n1 [R-2, pyrazosulfuron ethyl]",pest or weed control at 2 g/ha,Monochoria vaginalis [4]; [17],80%
same,pest or weed control at 2 g/ha,Scirpus juncoides [5]; [17],71%
same,"inhibition ratio (%), a (transplanted rice)",transplanted rice [6]; dosage 2 g/ha,0%
"COC(=O)c1c(Cl)nn(C)c1S(=O)(=O)NC(=O)Nc1nc(OC)cc(OC)n1 [R-3, halosulfuron methyl]",pest or weed control at 4 g/ha,Monochoria vaginalis [4],71%
same,pest or weed control at 4 g/ha,Scirpus juncoides [5],66%
same,"inhibition ratio (%), a (transplanted rice)",transplanted rice [6]; dosage 4 g/ha,0%
"COc1cc(OC)nc(NC(=O)NS(=O)(=O)c2c(Cl)nc3ccccn23)n1 [R-4, imazosulfuron]",pest or weed control at 4 g/ha,Monochoria vaginalis [4]; [18],65%
same,pest or weed control at 4 g/ha,Scirpus juncoides [5]; [18],60%
